Structures are written as SMILES.

The conditions of data set [1]: cited from earlier work.
Data set [2] can be described thus: Solubility testing of tetrazolium salts in methanol and water (Table I). Particulars: for solubility in methanol (in words) / solubility in water (in words): discussion of Table I.
Data set [3] is described as follows: Impregnation of zwitterionic nylon fabric with tetrazolium salt and ATP; HPLC of methanol extract, extraction into aqueous impregnation solution (Example II). Particulars: 1 liter remaining after aqueous ATP impregnation.
Source text: The solution also contained some formazan which was not quantified.
4 L×0.08 moles/L=0.32 moles of tetrazolium salt impregnated into the membrane during first treatment.
1 L×0.006 moles/L=0.006 moles extracted during aqueous impregnation.
Where [4] appears, read: listed as DCT tetrafluoroborate.

Take `C=C1CC(C)C2C3Cc4ccc(O)cc4C2(CCN3CC2CCC2)C1` (stereo not drawn) [17-cyclobutylmethyl-3-hydroxy-862-methyl-6-methylene morphinane]: in data set [1] (U.S. Pat. No. 4,334,071), the “solubility on converting chloride salt to methanesulfonate” value is “enhancement of the solubility”.

On to `COc1ccccc1-[n+]1nc(-c2ccc3c(c2)OCO3)nn1-c1nc(C(F)F)c(Cl)s1` [DCMT BF4^-, 2-(4-difluoromethyl-5-chlorothiazol-2-yl)-3-(2 methoxyphenyl)-5-(3,4-methylenedioxyphenyl) tetrazolium], for which, in data set [2], the “Solubility, Methanol” value came to 12.9 m mol L and the “Solubility, Water” value was found to be 2.7 m mol L.

For `COc1ccccc1-[n+]1nc(-c2ccc3c(c2)OCO3)nn1-c1nc(C(F)F)c(Cl)s1` [DCMT Br^-, 2-(4-difluoromethyl-5-chlorothiazol-2-yl)-3-(2 methoxyphenyl)-5-(3,4-methylenedioxyphenyl) tetrazolium], in data set [2], the “Solubility, Methanol” value is listed as 24 m mol L and the “Solubility, Water” value is less than 1 m mol L.

Consider `COc1ccccc1-[n+]1nc(-c2ccc3c(c2)OCO3)nn1-c1nc(C(F)F)c(Cl)s1` [DCMT BuSO3^-, 2-(4-difluoromethyl-5-chlorothiazol-2-yl)-3-(2 methoxyphenyl)-5-(3,4-methylenedioxyphenyl) tetrazolium], for which, in data set [2], the “Solubility, Methanol” value was more than 700 m mol L and the “Solubility, Water” value stood at 15 m mol L.

Take `COc1ccccc1-[n+]1nc(-c2ccc3c(c2)OCO3)nn1-c1nc(C(F)F)c(Cl)s1` [DCMT MeSO3^-, 2-(4-difluoromethyl-5-chlorothiazol-2-yl)-3-(2 methoxyphenyl)-5-(3,4-methylenedioxyphenyl) tetrazolium]: in data set [2], the “Solubility, Methanol” value is more than 760 m mol L; the “solubility in methanol (in words)” value is on record as “greatly enhanced”; the “Solubility, Water” value is on record as 248 m mol L; the “solubility in water (in words)” value is recorded as “greatly enhanced”.

Turning to `COc1ccccc1-[n+]1nc(-c2ccc3c(c2)OCO3)nn1-c1nc(C(F)F)c(Cl)s1` [DCMT PeSO3^-, 2-(4-difluoromethyl-5-chlorothiazol-2-yl)-3-(2 methoxyphenyl)-5-(3,4-methylenedioxyphenyl) tetrazolium], in data set [2], the “Solubility, Methanol” value is recorded as more than 700 m mol L and the “Solubility, Water” value amounted to 2.6 m mol L.

`COc1ccccc1-[n+]1nc(-c2ccc3c(c2)OCO3)nn1-c1nc(C(F)F)c(Cl)s1` [DCMT PrSO3^-, 2-(4-difluoromethyl-5-chlorothiazol-2-yl)-3-(2 methoxyphenyl)-5-(3,4-methylenedioxyphenyl) tetrazolium]: in data set [2], the “Solubility, Methanol” value was more than 760 m mol L and the “Solubility, Water” value is 23 m mol L.

Regarding `COc1cc(-[n+]2nc(-c3ccc4c(c3)OCO4)nn2-c2nc(C(F)F)c(Cl)s2)cc(OC)c1OC` [DCT BF4^-, 2-(4-difluoromethyl-5-chlorothiazol-2-yl)-3-(3,4,5-trimethoxyphenyl)-5-(3,4-methylenedioxyphenyl) tetrazolium], in data set [2], the “Solubility, Methanol” value is given as less than 16 m mol L and the “Solubility, Water” value is less than 0.5 m mol L. Besides, in data set [2] (setting [4]), the “solubility in methanol (in words)” value was “only marginally soluble” and the “solubility in water (in words)” value was “only marginally soluble”.

Regarding `COc1cc(-[n+]2nc(-c3ccc4c(c3)OCO4)nn2-c2nc(C(F)F)c(Cl)s2)cc(OC)c1OC` [DCT Br^-, 2-(4-difluoromethyl-5-chlorothiazol-2-yl)-3-(3,4,5-trimethoxyphenyl)-5-(3,4-methylenedioxyphenyl) tetrazolium], in data set [2], the “Solubility, Methanol” value is 10 m mol L and the “Solubility, Water” value is given as less than 1 m mol L. In data set [2] (listed as DCT bromide), the “solubility in methanol (in words)” value is “only marginally soluble” and the “solubility in water (in words)” value is listed as “only marginally soluble”.

For `COc1cc(-[n+]2nc(-c3ccc4c(c3)OCO4)nn2-c2nc(C(F)F)c(Cl)s2)cc(OC)c1OC` [DCT BzSO3^-, 2-(4-difluoromethyl-5-chlorothiazol-2-yl)-3-(3,4,5 trimethoxyphenyl)-(5-(3,4-methylenedioxyphenyl)tetrazolium benzenesulfonate], the “Solubility, Methanol” value in data set [2] was more than 550 m mol L. Further, the “solubility in methanol (in words)” value in data set [2] (listed as DCT benzenesulfonate) was “high methanol solubility”. For the same compound, the “tetrazolium salt extracted from the treated membrane into remaining aqueous solution” value in data set [3] was 3 mM.

As for `COc1cc(-[n+]2nc(-c3ccc4c(c3)OCO4)nn2-c2nc(C(F)F)c(Cl)s2)cc(OC)c1OC` [DCT EtSO3^-, 2-(4-difluoromethyl-5-chlorothiazol-2-yl)-3-(3,4,5-trimethoxyphenyl)-5-(3,4-methylenedioxyphenyl) tetrazolium], in data set [2], the “Solubility, Methanol” value was more than 600 m mol L and the “Solubility, Water” value was 26 m mol L.

Regarding `COc1cc(-[n+]2nc(-c3ccc4c(c3)OCO4)nn2-c2nc(C(F)F)c(Cl)s2)cc(OC)c1OC` [DCT MeSO3^-, 2-(4-difluoromethyl-5-chlorothiazol-2-yl)-3-(3,4,5-trimethoxyphenyl)-5-(3,4-methylenedioxyphenyl) tetrazolium], in data set [2], the “Solubility, Methanol” value is reported as more than 500 m mol L and the “Solubility, Water” value worked out at 73 m mol L. In data set [2] (listed as DCT methanesulfonate), the “solubility in methanol (in words)” value is listed as “highly soluble” and the “solubility in water (in words)” value is “highly soluble”.

As to `COc1cc(-[n+]2nc(-c3ccc4c(c3)OCO4)nn2-c2nc(C(F)F)c(Cl)s2)cc(OC)c1OC` [DCT NO3^-, 2-(4-difluoromethyl-5-chlorothiazol-2-yl)-3-(3,4,5-trimethoxyphenyl)-5-(3,4-methylenedioxyphenyl) tetrazolium], in data set [2], the “Solubility, Methanol” value was found to be 22 m mol L and the “Solubility, Water” value is 2 m mol L. Besides, in data set [2] (listed as DCT nitrate), the “solubility in methanol (in words)” value is “only marginally soluble” and the “solubility in water (in words)” value was “only marginally soluble”.

Turning to `COc1cc(-[n+]2nc(-c3ccc4c(c3)OCO4)nn2-c2nc(C(F)F)c(Cl)s2)cc(OC)c1OC` [DCT PrSO3^-, 2-(4-difluoromethyl-5-chlorothiazol-2-yl)-3-(3,4,5-trimethoxyphenyl)-5-(3,4-methylenedioxyphenyl) tetrazolium], in data set [2], the “Solubility, Methanol” value was more than 650 m mol L and the “Solubility, Water” value was 16 m mol L.

Take `O=[N+]([O-])c1ccc(-n2nc(-c3ccccc3)n[n+]2-c2ccc(I)cc2)cc1` [INT Cl^-, 2-(4-iodophenyl)-3-(4-nitrophenyl)-5-phenyl tetrazolium, reference compound]: in data set [2], the “Solubility, Water” value is recorded as 3 m mol L.

Regarding `O=[N+]([O-])c1ccc(-n2nc(-c3ccccc3)n[n+]2-c2ccc(I)cc2)cc1` [INT MeSO3^-, 2-(4-iodophenyl)-3-(4-nitrophenyl)-5-phenyl tetrazolium], in data set [2], the “Solubility, Water” value came to 35 m mol L.

Consider `COc1ccc(-c2nn(-c3nc4c(cc(OC)c5ccccc54)s3)[n+](-c3cc(OC)c(OC)c(OC)c3)n2)cc1` [MTM BzSO3, 2-(5-methoxynaphtho[1,2-d]thiazol-2-yl)-3-(3,4,5-trimethoxyphenyl)-5-(4-methoxyphenyl) tetrazolium], for which, in data set [2], the “Solubility, Methanol” value was 19 m mol L. In addition, in data set [2] (listed as MTM benzenesulfonate), the “solubility in methanol (in words)” value was “substantially greater than the nitrate”.

Consider `COc1ccc(-c2nn(-c3nc4c(cc(OC)c5ccccc54)s3)[n+](-c3cc(OC)c(OC)c(OC)c3)n2)cc1` [MTM MeSO3^-, 2-(5-methoxynaphtho[1,2-d]thiazol-2-yl)-3-(3,4,5-trimethoxyphenyl)-5-(4-methoxyphenyl) tetrazolium], for which the “Solubility, Methanol” value in data set [2] worked out at 48 m mol L. Further, the “solubility in methanol (in words)” value in data set [2] (listed as MTM methanesulfonate) is recorded as “substantially increased”.

As for `COc1ccc(-c2nn(-c3nc4c(cc(OC)c5ccccc54)s3)[n+](-c3cc(OC)c(OC)c(OC)c3)n2)cc1` [MTM NO3^-, 2-(5-methoxynaphtho[1,2-d]thiazol-2-yl)-3-(3,4,5-trimethoxyphenyl)-5-(4-methoxyphenyl) tetrazolium], the “Solubility, Methanol” value in data set [2] turned out to be 7.6 m mol L.

As to `COc1ccc(-c2nn(-c3nc4c(cc(OC)c5ccccc54)s3)[n+](-c3cc(OC)c(OC)c(OC)c3)n2)cc1` [MTM PrSO3^-, 2-(5-methoxynaphtho[1,2-d]thiazol-2-yl)-3-(3,4,5-trimethoxyphenyl)-5-(4-methoxyphenyl) tetrazolium], the “Solubility, Methanol” value in data set [2] was 100 m mol L. Also, the “solubility in methanol (in words)” value in data set [2] (listed as MTM propanesulfonate) is given as “substantially increased”.

On to `CN1CC[C@]23c4c5ccc(OCc6ccccc6)c4O[C@H]2[C@@H](O)C=C[C@H]3[C@H]1C5` [benzylmorphine, reference compound], for which the “water solubility after conversion to alkyl sulphonic acid salt” value in data set [1] (U.S. Pat. No. 1,892,019, methane or ethanesulfonic acid) is given as “increased water solubility”.

These data come from patent publication US5250695A, “Use of specific counteranions to modify the solubility of tetrazolium salts” (Miles Inc., priority 1992, dated 1993).
